Results: ChEMBL document CHEMBL1201862, “PubChem BioAssay data set” (2004)
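Growth conditions: 96-well plates. Treatment: test compound, 48 hours, 5 concentrations. Analysis: linear interpolation between bracketing concentrations; unreached endpoints set to highest concentration. Here, GI50 denotes the concentration required for 50% inhibition of growth.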 The source made the active and inactive calls. Cut-off read from the data, not from the text of the source: active = GI50 up to about 1.1 µM and inactive = higher.

How the values were obtained:
Assay in all cases: DTP human tumour cell line panel, 48 h
A498 = test system: A498
A549 = test system: A549
HCT-15 = test system: HCT-15
HL-60 = test system: HL-60
HT-29 = test system: HT-29
MDA-MB-231 = test system: MDA-MB-231
MDA-MB-435 = test system: MDA-MB-435
MOLT-4 = test system: MOLT-4
NCI-H226 = test system: NCI-H226
NCI-H23 = test system: NCI-H23
NCI-H522 = test system: NCI-H522
PC-3 = test system: PC-3
RPMI-8226 = test system: RPMI-8226
SF-268 = test system: SF-268
SF-295 = test system: SF-295
SK-MEL-5 = test system: SK-MEL-5
SNB-75 = test system: SNB-75
SR = test system: SR
U-251 = test system: U-251

SMILES	GI50 (A498)	GI50 (A549)	GI50 (HCT-15)	GI50 (HL-60)	GI50 (HT-29)	GI50 (MDA-MB-231)	GI50 (MDA-MB-435)	GI50 (MOLT-4)	GI50 (NCI-H226)	GI50 (NCI-H23)	GI50 (NCI-H522)	GI50 (PC-3)	GI50 (RPMI-8226)	GI50 (SF-268)	GI50 (SF-295)	GI50 (SK-MEL-5)	GI50 (SNB-75)	GI50 (SR)	GI50 (U-251)
CC1=CC(=O)c2cccc(NC3=NCCO3)c21	38 µM (inactive)	81.7 µM (inactive)	49.4 µM	19.7 µM (inactive)	34 µM (inactive)	32.4 µM (inactive)	31.6 µM (inactive)	32.7 µM (inactive)	29 µM (inactive)	43.5 µM (inactive)	69.8 µM (inactive)	46.6 µM (inactive)	45.1 µM (inactive)	> 100 µM (inactive)	> 100 µM (inactive)	23.2 µM (inactive)	52.6 µM (inactive)	38.2 µM (inactive)	64 µM (inactive)
CC1CC(C(=O)OC2OC(COC3OC(CO)C(OC4OC(C)C(O)C(O)C4O)C(O)C3O)C(O)C(O)C2O)C2CCC3(C)C(=CCC4(C)C3CCC3C(C)(CO)C(O)C(O)CC34C)C2C1C (stereo not given)	> 10 µM (inactive)	96.6 µM (inactive)	> 100 µM	21.6 µM (inactive)	21.8 µM (inactive)	17.9 µM (inactive)	18.6 µM (inactive)	19.6 µM (inactive)	32.5 µM (inactive)	16.3 µM (inactive)	13.7 µM (inactive)	29.5 µM (inactive)	21.4 µM (inactive)	19 µM (inactive)	28.8 µM (inactive)	18.7 µM (inactive)	16.9 µM (inactive)	17.9 µM (inactive)	17.5 µM (inactive)
COc1ccc(CSC2=C(C#N)C(=O)NC3(CCCCC3)S2)cc1	> 63.5 µM (inactive)	> 83.8 µM (inactive)	57.8 µM	3.63 µM (inactive)	38.1 µM (inactive)	> 76.4 µM (inactive)	19 µM (inactive)	36.9 µM (inactive)	> 100 µM (inactive)	48.8 µM (inactive)	24.2 µM (inactive)	74.8 µM (inactive)	> 56.6 µM (inactive)	47.1 µM (inactive)	51.6 µM (inactive)	42.5 µM (inactive)	62.2 µM (inactive)	71.3 µM (inactive)	48.4 µM (inactive)
C[N+]1(C(CO)Cc2c[nH]c3ccccc23)Cc2ccccc2C1 (stereo not given)	66.5 µM (inactive)	59.4 µM (inactive)	> 100 µM	> 100 µM (inactive)	92.3 µM (inactive)	> 100 µM (inactive)	> 100 µM (inactive)	> 100 µM (inactive)	> 100 µM (inactive)	> 100 µM (inactive)	49.3 µM (inactive)	> 100 µM (inactive)	76.6 µM (inactive)	> 100 µM (inactive)	> 100 µM (inactive)	32.6 µM (inactive)	> 100 µM (inactive)	> 100 µM (inactive)	> 100 µM (inactive)
COc1ccc(CCN2C(=O)C=CC2=O)cc1OC	16.7 µM (inactive)	23 µM (inactive)	1.87 µM	8.39 µM (inactive)	6.31 µM (inactive)	14.1 µM (inactive)	17.5 µM (inactive)	2.43 µM (inactive)	5.62 µM (inactive)	22 µM (inactive)	1.52 µM (inactive)	18.7 µM (inactive)	1.77 µM (inactive)	22.1 µM (inactive)	17.7 µM (inactive)	17.3 µM (inactive)	20.5 µM (inactive)	2.25 µM (inactive)	19.5 µM (inactive)
CC(C)Cc1c(C#N)c(C#N)c(N)n1Cc1ccccc1	> 100 µM (inactive)	> 100 µM (inactive)	> 100 µM	> 100 µM (inactive)	> 100 µM (inactive)	> 100 µM (inactive)	> 100 µM (inactive)	> 100 µM (inactive)	> 100 µM (inactive)	> 100 µM (inactive)	> 100 µM (inactive)	> 100 µM (inactive)	> 100 µM (inactive)	> 100 µM (inactive)	> 100 µM (inactive)	> 100 µM (inactive)	40.8 µM (inactive)	> 100 µM (inactive)	> 100 µM (inactive)
COC1(OC)C[C@H](C)[C@@]23O[C@]24C2=CC(=O)C=CC2=N[C@H]3C#C/C=C\C#C[C@]14O	0.91 µM (active)	0.71 µM (active)	0.432 µM	0.0431 µM (active)	0.266 µM (active)	0.621 µM (active)	0.546 µM (active)	0.0187 µM (active)	0.7 µM (active)	0.411 µM (active)	0.0469 µM (active)	0.753 µM (active)	0.123 µM (active)	0.711 µM (active)	1.64 µM (inactive)	0.323 µM (active)	0.133 µM (active)	0.032 µM (active)	0.805 µM (active)
CC(=O)O[C@H]1C(=O)[C@]2(C)[C@@H](OC(=O)OCCC(O)CO)C[C@H]3OC[C@@]3(OC(C)=O)[C@H]2[C@H](OC(=O)c2ccccc2)[C@]2(O)C[C@H](OC(=O)[C@H](O)[C@@H](NC(=O)c3ccccc3)c3ccccc3)C(C)=C1C2(C)C (stereo not given in full)	0.783 µM (active)	0.035 µM (active)	2.14 µM	< 0.01 µM (active)	< 0.01 µM (active)	0.0288 µM (active)	< 0.01 µM (active)	< 0.0106 µM (active)	< 0.0228 µM (active)	< 0.0127 µM (active)	< 0.01 µM (active)	< 0.0128 µM (active)	< 0.01 µM (active)	< 0.0171 µM (active)	0.193 µM (active)	0.0172 µM (active)	< 0.01 µM (active)	< 0.01 µM (active)	0.0135 µM (active)
OC(C#CCN1CCCC1)(c1ccccc1)c1ccccc1Cl (stereo not given)	17.1 µM (inactive)	33.4 µM (inactive)	68.5 µM	26.8 µM (inactive)	16.5 µM (inactive)	47.1 µM (inactive)	23.2 µM (inactive)	33.7 µM (inactive)	80.7 µM (inactive)	37.3 µM (inactive)	22.6 µM (inactive)	27.8 µM (inactive)	39.2 µM (inactive)	44.2 µM (inactive)	24.6 µM (inactive)	17.7 µM (inactive)	59.4 µM (inactive)	36.3 µM (inactive)	17.7 µM (inactive)
CN(C)CCCNC(=O)c1cc(NC(=O)c2cc(NS(=O)(=O)c3ccc4c(c3)C(=O)c3ccccc3C4=O)cn2C)cn1C	> 100 µM (inactive)	> 100 µM (inactive)	> 100 µM	97.9 µM (inactive)	65.3 µM (inactive)	> 100 µM (inactive)	83.8 µM (inactive)	24 µM (inactive)	> 100 µM (inactive)	> 100 µM (inactive)	93.5 µM (inactive)	> 100 µM (inactive)	21.5 µM (inactive)	> 100 µM (inactive)	> 100 µM (inactive)	29.2 µM (inactive)	> 100 µM (inactive)	27 µM (inactive)	81.3 µM (inactive)
